The source of these data is patent publication US11857535B2, “Methods of treating mutant lymphomas” (Kymera Therapeutics, Inc., priority 2020, dated 2024).

By DC50 is commonly meant the midpoint of the concentration-degradation curve. Read a high DC50 as a less potent degrader. In general, IC50 refers to the concentration that inhibits the measured activity by half. A low value points to greater potency.

The target in one test is T1, IRAK4 (Homo sapiens, UniProt Q9NWZ3).
T1 construct: endogenous in cells; host or cells: OCI-Ly10
T1 sequence (Q9NWZ3 1-460): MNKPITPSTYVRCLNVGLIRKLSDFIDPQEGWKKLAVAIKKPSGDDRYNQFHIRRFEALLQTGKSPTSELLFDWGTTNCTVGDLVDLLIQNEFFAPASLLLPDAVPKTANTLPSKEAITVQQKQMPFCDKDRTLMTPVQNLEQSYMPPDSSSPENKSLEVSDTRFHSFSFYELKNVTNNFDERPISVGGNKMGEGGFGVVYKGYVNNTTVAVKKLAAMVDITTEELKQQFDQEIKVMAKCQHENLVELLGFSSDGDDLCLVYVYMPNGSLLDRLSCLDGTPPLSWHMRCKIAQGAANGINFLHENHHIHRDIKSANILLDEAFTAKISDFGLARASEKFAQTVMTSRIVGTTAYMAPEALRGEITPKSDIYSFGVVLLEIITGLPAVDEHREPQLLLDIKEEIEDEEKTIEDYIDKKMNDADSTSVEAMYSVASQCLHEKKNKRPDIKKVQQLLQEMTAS
Description: IRAK4 MSD degradation in OCI-Ly10. The format is cell-based. The following applies: OCI-Ly10 cells, 24 hrs. On the procedure:
Degradation of IRAK4 in OCI-Ly10 was quantitatively measured using Meso Scale Discovery technology. OCI-Ly10 cells were seeded in 96-well plates (Corning 3799) with a density of 300,000 cells per well in 100 μL fresh media. Compounds were then added to the assay plates with a final top concentration of 1 to 10 μM in a 1:3 dilution series with total of 8 doses. The assay plates were then incubated for 4 to 24 hours at 37° C. under 5% CO2. The assay plates were then centrifuged for 5 minutes and the cell pellets were treated with 100 μL/well RIPA lysis buffer (Boston BioProducts BP-115D) with proteinase inhibitors. To prepare MSD assay plates (Meso Scale Discovery Catalog number L15XA-3), the plates were coated with 2 μg/mL capture antibody (mouse Anti-IRAK4 antibody [2H9], ab119942) in PBS, at 40 μL/well. The plates were then incubated overnight at 4° C., washed 3 times with 150 μL/well TBST buffer (Cell Signaling Technology, Catalog number 9997S) and blocked with 150 μL/well blocking buffer (Meso Scale Discovery Catalog number R93BA-4). Cell lysates were then added to MSD assay plates and the plates were incubated at room temperature for 1 hour. The plates were then washed 3 times with 150 μL/well TBST buffer and […] primary detection antibody (rabbit Anti-IRAK4 antibody [Y279], from Abcam. Catalog number ab32511, 1 μg/mL). The assay plates were then incubated at room temperature for 1 hour, washed 3 times with 150 μL/well TBST buffer and 25 μL/well secondary detection antibody, SULFO-TAG anti-rabbit antibody were added (anti rabbit antibody from Meso Scale Discovery, Catalog number R32AB-1, 1 μg/mL). The assay plates were then incubated at room temperature for 1 hour, washed 3 times with 150 μL/well TBST buffer, and 150 μL/well MSD reading buffer (Meso Scale Discovery catalog number R92TC-2) was added. The plates were then analyzed by a MSD reader (Meso Scale Discovery, Model Quick Plex SQ 120). The data was then analyzed by software Prism 7.0 from GraphPad and the dose-depended IRAK4 degradation were fit using a three-parameter logistic equation to calculate DC50.

The next test has as its system OCI-Ly10. Description: CTG cell viability assay - OCI-Ly10. The format is cell-based. The following applies: Homo sapiens, 96 h; OCI-Ly10, 4 days. On the procedure: Compound-mediated viability effect on OCI-Ly10 or SUDHL-2 was quantitatively determined using the CellTiter-Glo® Luminescent Cell Viability Assay kit from Promega (Catalog number G7570) following manufacturer's recommended procedures. Briefly, OCI-Ly10 or SUDHL-2 cells were seeded into 384 well plates (Grenier Bio-One, Catalog number 781080) with a density of 10,000 cells per well. Compounds were then added to the assay plate with final top concentration of 10 μM and 1:3 dilution series with total of 9 doses. The final DMSO concentration was normalized to 0.2%. The assay plates were incubated at 37° C. for 4 days under 5% CO2. Then the assay plate was equilibrated at room temperature for 10 minutes. To determine cell viability, 30 μL CellTiter Glo reagent was added to each well and the assay plate was centrifuged at 1000 rpm for 30 second, incubated at room temperature for 10 min, and analyzed by detecting the luminescence using a multimode plate reader (EnVision 2105, PerkinElmer). The data was then analyzed by software Prism 7.0 from GraphPad and the dose response curves were fit using a three-parameter logistic equation to calculate IC50.

Test [1] concerns MYD88-mutant and wild type DLBCL PDX models. The note with it: MYD88 MT model LY0257 with mutation in Aiolos; cited from earlier work.

For the compound `CC(C)(O)c1cc2nc([C@H]3CC[C@H](CN4CC5(CC(CCNc6cccc7c6C(=O)N([C@@H]6CCC(=O)NC6=O)C7=O)C5)C4)CC3)sc2cc1NC(=O)c1cccc(C(F)(F)F)n1` (single isomer, unassigned) [Compound (R)-A], at IRAK4, the DC50 was below 50 nM. Besides, the 50% inhibitory concentration (IC50) with OCI-Ly10 is below 50 nM.
In turn, `CC(C)(O)c1cc2nc([C@H]3CC[C@H](CN4CC5(CC(CCNc6cccc7c6C(=O)N([C@H]6CCC(=O)NC6=O)C7=O)C5)C4)CC3)sc2cc1NC(=O)c1cccc(C(F)(F)F)n1` (single isomer, unassigned) [Compound (S)-A] returned a DC50 at IRAK4 below 50 nM. For the same compound, in the test on OCI-Ly10, the IC50 is below 50 nM.
Turning to `Nc1cccc2c1CN(C1CCC(=O)NC1=O)C2=O` (centres unmarked) [lenalidomide], the “sensitivity of PDX model LY0257” value in test [1] is “insensitive”.
